Assay results taken from patent publication US12421517B2, “Genetic modification of mammalian cells to confer resistance to CSF1R antagonists” (THE REGENTS OF THE UNIVERSITY OF CALIFORNIA, priority 2021, dated 2025).
Entries after “also recorded” stand apart in the source; their conditions may differ.

Experiments:
[1] = system: wild-type (WT) iPSC-microglia; assay: LIVE/DEAD viability/cytotoxicity assay; format: cell-based, human; details: 500 nM or 1 uM, 24 hours
Protocol: (§1) FIGS. 5A and 5B show G795A iPSC-derived microglia are resistant to CSF1R antagonist-induced cell death. As cells can die from processes other than caspase-mediated apoptosis, it is important to determine whether the G795A mutation provides a more broad-based resistance to any form of cell death induced by CSF1R antagonists. Therefore, G795A and wild-type (WT) iPSC-microglia were treated for 24 hours with either 500 nM (FIG. 5A) or 1 uM (FIG. 5B) of DMSO vehicle control or one of four CSF1R antagonists; PLX3397, PLX5622, Edicotinib, and BLZ945. The percent of live versus dead cells was then quantified using a two-color viability/cytotoxicity approach (Thermo L3224; LIVE/DEAD™ Viability/Cytotoxicity Kit). Very few dead microglia are observed 24 hours after treatment with DMSO. […] Live cells are denoted with a circle.

G795A iPSC-microglia [2] = assay: LIVE/DEAD viability/cytotoxicity assay; format: cell-based, human; details: 500 nM or 1 uM, 24 hours
Protocol: as §1

WT microglia [3] = assay: Caspase 3/7 cell death assay (IncuCyte, 24 h imaging); format: cell-based, human; details: 250 nM, 500 nM, 1 μm, versus DMSO control
Text: (§2) FIGS. 4A, 4B, 4C, 4D, and 4E show human stem cell-derived microglia are also susceptible to and killed by CSF1R inhibition in vitro. […] Images captured on Incucyte S3 live-cell imager. […] Images captured on Incucyte S3 live-cell imager. […] Images captured on Incucyte S3 live-cell imager. […] Images captured on Incucyte S3 live-cell imager. […] For all panels, n=4 images in six independent wells were quantified. Data represented as mean values±SEM.
(§3) Strategy 1: A crystal structure of the CSF1R receptor bound to an antagonist (PMID: 31434879) to predict amino acid substitutions that may sterically hinder the binding of CSF1R antagonists while not impairing the normal binding of ATP into the same binding pocket. The crystal structure of PLX5622 bound to human CSF1R was obtained and the ATP binding pocket was examined (FIG. 7A). Through molecular modeling single amino acid changes were predicted that would likely impair the binding of PLX5622 or PLX3397 or other CSF1R antagonists while not disrupting normal ATP binding to CSF1R. […] Other mutations could also be explored to prevent binding (FIG. 7D). […] The resulting iPSCs were then differentiated into microglia and exposed to varying concentrations of either PLX3397 or PLX5622. To detect microglial cell death (apoptosis) a caspase-3/7 fluorogenic reporter was used. […] FIG. 4F provided representative images of cell density (phase-contrast microscopy, 1st column) and fluorescent Caspase-3/7 activity (2nd column) across each dose of PLX3397 and PLX5622.
(§4) Resistance to each of the CSF1R inhibitors tested was quantified using a fluorogenic caspase 3/7 detector (Essen BioScience) and time-lapse imaging over 24 hours.
(§5) Cell death assay: iPS-microglia were plated at 70K cells per 96-well plate (6 wells per line per condition). At time 0, all microglia were treated with IncuCyte Caspase-3/7 Green Apoptosis Assay Reagent 1:1000. Cells were maintained in the described medium: fresh complete medium+0.1% DMSO, complete media+250 nM PLX3397, complete medium+500 nM PLX3397, complete medium+1 μm PLX3397, complete medium+250 nM PLX5622, complete medium+500 nM PLX5622, complete medium+1 μm PLX5622, complete medium+250 nM Edicotinib, complete medium+500 nM Edicotinib, complete medium+1 μm Edicotinib, complete medium+250 nM BLZ945, complete medium+500 nM BLZ945, complete medium+1 μm BLZ945. Four 20× images per well were collected every hour for 24 hours. Using IncuCyte 2020B software, image masks for phase confluence (visually gated out apoptotic cells) as well as caspase 3/7 signal (green) were generated. Graphs display caspase normalized to phase confluence, completed with 3 lines: WT, G795A, G795C (see FIGS. 4A, 4B, 4C, 4D, and 4E).

G795C iPSC-microglia = assay: as above; format: cell-based, human; details: 250 nM, 500 nM, 1 μm, versus DMSO control
Text: as §2, §3, §4, §5

G795A iPSC-microglia [4] = assay: as above; format: cell-based, human; details: 250 nM, 500 nM, 1 μm, versus DMSO control
Text: as §2, §3, §4, §5

[5] = system: CSF1R-G795A human iPSC-microglia; assay: Quantification of human iPSC-microglial engraftment (Ku80+/Iba1+) in adult hCSF1 mice; format: in vivo; details: after CSF1R-G795A iPSC-microglia transplantation, 600 mg/kg PLX3397 in food
Protocol: In contrast, when CSF1R-G795A iPSC-microglia transplantation is followed with treatment of mice for 10 days with PLX3397 containing mouse chow (600 mg/kg PLX3397 in food), the percent of human microglia increases to almost 25%. After 30 days of PLX3397 treatment (600 mg/kg PLX3397 in food), 90-95% of all microglia in the brain are human as evidenced by co-expression of Ku80 and IBA1. By transplanting CSF1R-G795A iPSC-microglia and varying the concentration and duration of CSF1R antagonist treatment either before, during, or after transplantation, one can control the degree of human iPSC-microglial engraftment.

G795A xMGs = assay: Xenotransplanted human microglia in adult mice, PLX3397 chow, immunohistochemistry; format: in vivo; details: 600 mg/kg in rodent chow ad libitum, 4 weeks
Text: (§6) FIGS. 11A, 11B, 110, 11D, 11E, 11F, 11G, 11H, 11I, and 11J show G795A iPSC-derived microglia are resistant to CSF1R […] treatment and enable robust engraftment of human microglia within the adult mammalian brain. Xenotransplantation-compatible mice received bilateral stereotactic intrahippocampal injections of 500,000 iPSC-derived human microglia (xMGs) at 2-months of age. Mice received xMGs differentiated from either a homozygous CSF1R-resistant G795A human IPSO line or an isogenic unmodified Wad-Type human iPSC. At […], mice were treated with 600 mg/kg of PLX3397 in rodent chow ad libitum for 4 weeks duration. Mice were then sacrificed, and half-brains were examined by fluorescent immunohistochemistry and confocal microscopy.

wild-type human xMGs = assay: as above; format: in vivo; details: 600 mg/kg in rodent chow ad libitum, 4 weeks
Text: as §6

MUT1 (G795A) microglia = assay: RNA-seq after 24-hour treatment versus DMSO; format: cell-based, human
Text: (§7) FIGS. 2A, 2B, 2C, 2D, 2E, and 2F show selected CSF1R mutations have little effect on transcriptomic signature while simultaneously imparting resistance to PLX5622.

MUT2 (G795C) microglia = assay: RNA-seq after 24-hour treatment versus DMSO; format: cell-based, human
Text: as §7

WT microglia [6] = assay: RNA-seq after 24-hour treatment versus DMSO; format: cell-based, human; details: FDR≤0.05, log 2(FC)≥±1
Text: as §7

CNC(=O)c1cc(Oc2ccc3nc(N[C@@H]4CCCC[C@H]4O)sc3c2)ccn1 [BLZ945]
cell death (live versus dead cells) [1]: substantial cell death | cell death (live versus dead cells) (G795A iPSC-microglia [2]): little-to-no cell death | caspase 3/7 levels (cell death, apoptosis) (WT microglia [3]): significant levels of increased caspase | caspase 3/7 levels (cell death, apoptosis) (G795C iPSC-microglia): no significant increase in caspase levels | caspase 3/7 levels (cell death, apoptosis) (G795A iPSC-microglia [4]): no significant increase in caspase levels

CC1(C)CC=C(c2nc(C3CC(C)(C)OC(C)(C)C3)ccc2NC(=O)c2nc(C#N)c[nH]2)CC1 [Edicotinib]
cell death (live versus dead cells) [1]: substantial cell death | cell death (live versus dead cells) (G795A iPSC-microglia [2]): little-to-no cell death | caspase 3/7 levels (cell death, apoptosis) (WT microglia [3]): significant levels of increased caspase | caspase 3/7 levels (cell death, apoptosis) (G795C iPSC-microglia): no significant increase in caspase levels | caspase 3/7 levels (cell death, apoptosis) (G795A iPSC-microglia [4]): no significant increase in caspase levels

FC(F)(F)c1ccc(CNc2ccc(Cc3c[nH]c4ncc(Cl)cc34)cn2)cn1 [PLX3397]
percent of human microglia (Ku80+/Iba1+) of total microglia ([5]; 10 days): ~25% | percent of human microglia (Ku80+/Iba1+) of total microglia ([5]; 30 days): 90-95% | survival and expansion of transplanted xMGs in the brain (G795A xMGs): proliferate and expand | survival of transplanted xMGs in the brain (wild-type human xMGs): only a handful of wild-type human xMGs survive | cell death (live versus dead cells) [1]: substantial cell death | cell death (live versus dead cells) (G795A iPSC-microglia [2]): little-to-no cell death | caspase 3/7 levels (cell death, apoptosis) (WT microglia [3]): robust dose-dependent induction of apoptosis; also recorded: significant levels of increased caspase | caspase 3/7 levels (cell death, apoptosis) (G795C iPSC-microglia): complete resistance to cell death; also recorded: no significant increase in caspase levels | caspase 3/7 levels (cell death, apoptosis) (G795A iPSC-microglia [4]): complete resistance to cell death; also recorded: no significant increase in caspase levels

COc1ncc(F)cc1CNc1ccc(Cc2c[nH]c3ncc(C)cc23)c(F)n1 [PLX5622]
cell death (live versus dead cells) [1]: substantial cell death | cell death (live versus dead cells) (G795A iPSC-microglia [2]): little-to-no cell death | transcriptomic alterations versus DMSO-treated cells (MUT1 (G795A) microglia): failed to significantly alter gene expression | transcriptomic alterations versus DMSO-treated cells (MUT2 (G795C) microglia): failed to significantly alter gene expression | transcriptomic alterations versus DMSO-treated cells (WT microglia [6]): induced significant transcriptomic alterations | caspase 3/7 levels (cell death, apoptosis) (WT microglia [3]): robust dose-dependent induction of apoptosis; also recorded: significant levels of increased caspase | caspase 3/7 levels (cell death, apoptosis) (G795C iPSC-microglia): complete resistance to cell death; also recorded: no significant increase in caspase levels | caspase 3/7 levels (cell death, apoptosis) (G795A iPSC-microglia [4]): complete resistance to cell death; also recorded: no significant increase in caspase levels
